ChEMBL document CHEMBL6182926, “Design, Synthesis, and Biological Activity Evaluation of Deuterated Diphenyl Azole Alcohol-Based CYP51 Inhibitors” (J Med Chem, 2025)
Values after ≈ are worked out from the molar mass of the structure shown.

How the values were obtained:
Cryptococcus neoformans [1] = experiment: Antifungal activity against Cryptococcus neoformans CGMCC 2.3161 assessed as reduction in Eburicol at 0.0125 ug/ml measured after 18 hrs incubation by gas chromatography-mass spectrometry (GCMS) analysis; type: functional; set-up: scale not given: the % may be the effect or the level left; details: dose 0.0125 µg/ml
[2] = Subacute toxicity in ICR mouse assessed as structural alteration in liver at 100 mg/kg, oral gavage for 14 consecutive days by hematoxylin-eosin (H/E) staining analysis; type: organism-based; details: in vivo, 336 h, time 14 day
Nakaseomyces glabratus [3] = experiment: Fungicidal index, ratio of MFC for fungicidal activity against Clinical isolate Candida glabrata to MIC80 for antifungal activity against Clinical isolate Candida glabrata; type: functional
Cytochrome P450 2C9 = Cytochrome P450 2C9 (Homo sapiens, UniProt P11712); experiment: Inhibition of CYP2C9 in human liver microsomes using diclofenac as substrate measured after 10 mins by LC/MS/MS analysis; type: ADME, Microsome
Candida albicans [4] = experiment: Antifungal activity against Candida albicans CPCC 400616 assessed as inhibition of visible growth; type: functional
Cryptococcus neoformans [5] = experiment: Inhibition of biofilm formation in Cryptococcus neoformans CGMCC 2.3161 assessed as inhibition of metabolic activity of biofilm measured after 24 hrs by XTT assay; type: functional
Candida tropicalis = experiment: Antifungal activity against Candida tropicalis CGMCC 2.3739 assessed as inhibition of visible growth; type: functional
[6] = Selectivity ratio, ratio of IC50 for cytotoxicity against human SH-SY5Y cells to MIC80 for antifungal activity against Clinical isolate Candida glabrata; type: toxicity, cell-based
[7] = Tmax in Sprague-Dawley rat at 10 mg/kg, po by LC-MS/MS analysis; type: ADME, organism-based; details: in vivo
Cryptococcus neoformans [8] = experiment: Fungicidal index, ratio of MFC for fungicidal activity against Cryptococcus neoformans CGMCC 2.3161 to MIC80 for antifungal activity against Cryptococcus neoformans CGMCC 2.3161; type: functional
[9] = Cmax in Sprague-Dawley rat at 10 mg/kg, po by LC-MS/MS analysis; type: ADME, organism-based; details: in vivo
[10] = Selectivity ratio, ratio of IC50 for cytotoxicity against human SH-SY5Y cells to MIC80 for antifungal activity against Candida albicans CPCC 400616; type: toxicity, cell-based
[11] = Subacute toxicity in ICR mouse assessed as structural alteration in kidney at 100 mg/kg, oral gavage for 14 consecutive days by hematoxylin-eosin (H/E) staining analysis; type: organism-based; details: in vivo, 336 h, time 14 day
[12] = Metabolic stability in human liver microsomes assessed as half life by LC-MS/MS analysis; type: ADME, Microsome; details: liver microsomes
Cytochrome P450 2C19 = Cytochrome P450 2C19 (Homo sapiens, UniProt P33261); experiment: Inhibition of CYP2C19 in human liver microsomes using S-mephenytoin as substrate measured after 10 mins by LC/MS/MS analysis; type: ADME, Microsome
Cryptococcus neoformans [13] = experiment: Antifungal activity against Cryptococcus neoformans CGMCC 2.3161 assessed as inhibition of visible growth; type: functional
[14] = (§1) Selectivity ratio, ratio of IC50 for cytotoxicity against human SH-SY5Y cells to MIC80 for antifungal activity against Candida parapsilosis GIM 2.190; type: toxicity, cell-based
[15] = MRT (0 to infinity) in Sprague-Dawley rat at 10 mg/kg, po by LC-MS/MS analysis; type: ADME, organism-based; details: in vivo
Candida parapsilosis = experiment: Antifungal activity against Candida parapsilosis GIM 2.190 assessed as inhibition of visible growth; type: functional; details: Lodderomyces parapsilosis
Pichia kudriavzevii = experiment: Fungicidal index, ratio of MFC for fungicidal activity against Candida krusei AS 2.1045 to MIC80 for antifungal activity against Candida krusei AS 2.1045; type: functional
Cryptococcus neoformans [16] = experiment: Antifungal activity against Cryptococcus neoformans CGMCC 2.3161 assessed as reduction in Lanosterol at 0.125 ug/ml measured after 18 hrs incubation by gas chromatography-mass spectrometry (GCMS) analysis; type: functional; set-up: scale not given: the % may be the effect or the level left; details: dose 0.125 µg/ml
[17] = AUC (0 to infinity) in Sprague-Dawley rat at 10 mg/kg, po by LC-MS/MS analysis; type: ADME, organism-based; details: in vivo
[18] = Toxicity in ICR mouse assessed as structural alteration in kidney at 500 mg/kg, po single dose measured for 7 days by hematoxylin-eosin (H/E) staining analysis; type: organism-based; details: in vivo, 168 h, time 7 day
[19] = Oral bioavailability in Sprague-Dawley rat at 10 mg/kg by LC-MS/MS analysis; type: ADME, organism-based; details: in vivo
Cytochrome P450 2D6 = Cytochrome P450 2D6 (Homo sapiens, UniProt P10635); experiment: Inhibition of CYP2D6 in human liver microsomes using dextromethorphan as substrate measured after 10 mins by LC/MS/MS analysis; type: ADME, Microsome
Nakaseomyces glabratus [20] = experiment: Antifungal activity against Clinical isolate Candida glabrata assessed as inhibition of visible growth; type: functional
[21] = as §1; type: toxicity, cell-based; remark: listed apart in the source
Cytochrome P450 1A2 = molecular target: T1, Cytochrome P450 1A2 (Homo sapiens, UniProt P05177); experiment: Inhibition of CYP1A2 in human liver microsomes using phenacetin as substrate measured after 10 mins by LC/MS/MS analysis; type: ADME, Microsome
T1 sequence (P05177 whole entry): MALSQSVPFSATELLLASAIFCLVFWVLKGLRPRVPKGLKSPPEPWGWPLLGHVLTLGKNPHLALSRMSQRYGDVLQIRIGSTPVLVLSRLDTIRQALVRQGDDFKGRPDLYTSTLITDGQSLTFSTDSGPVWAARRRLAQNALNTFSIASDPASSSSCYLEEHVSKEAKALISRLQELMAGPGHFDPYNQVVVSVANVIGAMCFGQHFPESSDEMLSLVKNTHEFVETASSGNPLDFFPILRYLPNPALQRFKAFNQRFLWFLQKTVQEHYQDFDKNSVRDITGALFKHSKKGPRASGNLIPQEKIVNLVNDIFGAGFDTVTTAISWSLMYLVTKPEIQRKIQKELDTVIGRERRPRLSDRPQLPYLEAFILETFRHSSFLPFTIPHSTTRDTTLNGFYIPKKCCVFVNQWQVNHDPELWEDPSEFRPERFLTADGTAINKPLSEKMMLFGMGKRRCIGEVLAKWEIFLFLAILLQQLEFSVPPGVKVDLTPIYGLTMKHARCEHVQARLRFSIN

[22] = Half life in Sprague-Dawley rat at 3 mg/kg, iv by LC-MS/MS analysis; type: ADME, organism-based; details: in vivo
Aspergillus fumigatus = experiment: Antifungal activity against Aspergillus fumigatus CGMCC 3.7795 assessed as inhibition of visible growth; type: functional
Candida albicans [23] = experiment: Antifungal activity against Candida albicans SC5314 assessed as reduction in other sterol at 0.05 ug/ml measured after 18 hrs incubation by gas chromatography-mass spectrometry (GCMS) analysis (reference value: 2.59%); type: functional; set-up: scale not given: the % may be the effect or the level left; details: dose 0.05 µg/ml
Cytochrome P450 3A4 = Cytochrome P450 3A4 (Homo sapiens, UniProt P08684); experiment: Inhibition of CYP3A4 in human liver microsomes using midazolam as substrate measured after 10 mins by LC/MS/MS analysis; type: ADME, Microsome
Cryptococcus neoformans [24] = experiment: Antifungal activity against Cryptococcus neoformans CGMCC 2.3161 assessed as reduction in other sterol at 0.0125 ug/ml measured after 18 hrs incubation by gas chromatography-mass spectrometry (GCMS) analysis (reference value: 2.20%); type: functional; set-up: scale not given: the % may be the effect or the level left; details: dose 0.0125 µg/ml
[25] = Tmax in Sprague-Dawley rat at 3 mg/kg, iv by LC-MS/MS analysis; type: ADME, organism-based; details: in vivo

Chain of Cytochrome P450 2D6 (P10635 whole entry): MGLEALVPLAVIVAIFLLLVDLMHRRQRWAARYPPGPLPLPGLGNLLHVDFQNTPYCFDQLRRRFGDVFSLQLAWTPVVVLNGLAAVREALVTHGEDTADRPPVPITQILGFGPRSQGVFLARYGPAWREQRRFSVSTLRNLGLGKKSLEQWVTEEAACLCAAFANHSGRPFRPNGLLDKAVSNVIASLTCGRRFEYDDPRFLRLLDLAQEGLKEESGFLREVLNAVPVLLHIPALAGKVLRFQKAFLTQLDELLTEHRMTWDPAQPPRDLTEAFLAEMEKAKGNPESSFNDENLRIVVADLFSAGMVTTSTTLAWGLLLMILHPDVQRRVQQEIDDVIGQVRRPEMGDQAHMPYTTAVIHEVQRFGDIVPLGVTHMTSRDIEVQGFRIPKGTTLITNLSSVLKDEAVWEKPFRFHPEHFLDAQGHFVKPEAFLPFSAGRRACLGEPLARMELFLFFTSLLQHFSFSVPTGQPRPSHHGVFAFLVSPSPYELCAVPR
Chain of Cytochrome P450 3A4 (P08684 whole entry): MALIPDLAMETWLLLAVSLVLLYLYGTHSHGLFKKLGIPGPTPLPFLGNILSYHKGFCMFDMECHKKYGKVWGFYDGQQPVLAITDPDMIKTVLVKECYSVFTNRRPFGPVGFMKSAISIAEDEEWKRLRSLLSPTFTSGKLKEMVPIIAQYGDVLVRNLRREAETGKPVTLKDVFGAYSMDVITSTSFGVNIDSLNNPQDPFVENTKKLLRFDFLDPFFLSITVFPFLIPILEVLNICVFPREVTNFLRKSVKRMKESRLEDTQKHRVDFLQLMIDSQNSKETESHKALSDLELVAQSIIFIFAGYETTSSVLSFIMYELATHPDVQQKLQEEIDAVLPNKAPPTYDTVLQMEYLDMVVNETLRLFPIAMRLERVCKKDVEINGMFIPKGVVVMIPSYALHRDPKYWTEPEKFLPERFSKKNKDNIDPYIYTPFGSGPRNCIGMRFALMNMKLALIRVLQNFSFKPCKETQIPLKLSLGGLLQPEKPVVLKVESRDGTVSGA
Chain of Cytochrome P450 2C9 (P11712 whole entry): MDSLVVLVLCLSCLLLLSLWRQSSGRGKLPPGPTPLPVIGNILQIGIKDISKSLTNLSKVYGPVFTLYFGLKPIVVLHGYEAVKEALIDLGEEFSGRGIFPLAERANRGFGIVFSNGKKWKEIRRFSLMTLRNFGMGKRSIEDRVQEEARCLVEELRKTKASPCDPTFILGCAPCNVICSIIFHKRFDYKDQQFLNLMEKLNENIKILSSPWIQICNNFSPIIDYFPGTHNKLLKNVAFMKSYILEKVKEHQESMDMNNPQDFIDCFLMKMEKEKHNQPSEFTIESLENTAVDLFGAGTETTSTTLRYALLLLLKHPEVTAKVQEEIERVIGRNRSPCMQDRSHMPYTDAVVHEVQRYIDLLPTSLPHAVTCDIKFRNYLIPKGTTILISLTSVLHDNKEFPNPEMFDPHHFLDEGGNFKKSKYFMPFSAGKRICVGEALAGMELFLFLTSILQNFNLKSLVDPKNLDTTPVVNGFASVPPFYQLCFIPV
Chain of Cytochrome P450 2C19 (P33261 whole entry): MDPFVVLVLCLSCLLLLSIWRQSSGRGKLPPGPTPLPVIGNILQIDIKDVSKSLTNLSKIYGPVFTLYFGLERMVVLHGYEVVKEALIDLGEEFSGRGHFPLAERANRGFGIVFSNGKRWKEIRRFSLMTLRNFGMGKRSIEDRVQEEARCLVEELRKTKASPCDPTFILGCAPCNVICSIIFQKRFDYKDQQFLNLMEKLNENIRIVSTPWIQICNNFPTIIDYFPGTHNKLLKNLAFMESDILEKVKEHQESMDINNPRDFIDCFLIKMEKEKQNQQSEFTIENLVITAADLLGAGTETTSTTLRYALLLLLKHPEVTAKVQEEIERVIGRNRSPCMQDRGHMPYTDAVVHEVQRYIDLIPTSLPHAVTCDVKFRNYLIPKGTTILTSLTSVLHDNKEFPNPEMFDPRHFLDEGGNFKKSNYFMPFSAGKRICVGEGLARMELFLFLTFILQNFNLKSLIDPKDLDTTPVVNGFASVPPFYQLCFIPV

[2H]C([2H])([2H])N(Cc1ccc(-c2ccc(OC(F)(F)F)cc2)cc1)[C@H](C)[C@](O)(Cn1cncn1)c1ccc(F)cc1F
Activity (Cryptococcus neoformans [1]): 11.59%
Activity [2]: Non-toxic
Activity_index (Nakaseomyces glabratus [3]): 40
IC50 (Cytochrome P450 2C9): 1.76 µM
MIC80 (Candida albicans [4]): 0.006 µg/mL (≈ 0.0112 µM)
MIC50 (Cryptococcus neoformans [5]): 16 µg/mL (≈ 29.9 µM)
MIC80 (Candida tropicalis): 0.006 µg/mL (≈ 0.0112 µM)
selectivity ratio [6]: > 100
Tmax [7]: 2.67 h
Activity_index (Cryptococcus neoformans [8]): 5
Cmax [9]: 601 ng/mL
selectivity ratio [10]: > 100
Activity [11]: Non-toxic
half-life [12]: 0.67 h
IC50 (Cytochrome P450 2C19): 1.71 µM
MIC80 (Cryptococcus neoformans [13]): 0.012 µg/mL (≈ 0.0224 µM)
selectivity ratio [14]: > 100
MRT inf [15]: 6.18 h
MIC80 (Candida parapsilosis): 0.006 µg/mL (≈ 0.0112 µM)
Activity_index (Pichia kudriavzevii): 10
Activity (Cryptococcus neoformans [16]): 6.14%
AUC(0-inf) [17]: 4830 ng·h/mL
Activity [18]: Non-toxic
bioavailability [19]: 63.4%
IC50 (Cytochrome P450 2D6): > 10 µM
MIC80 (Nakaseomyces glabratus [20]): 0.012 µg/mL (≈ 0.0224 µM)
selectivity ratio [21]: > 100
IC50 (Cytochrome P450 1A2): > 10 µM
t1/2 [22]: 6.79 h
MIC80 (Aspergillus fumigatus): 0.025 µg/mL (≈ 0.0467 µM)
Activity (Candida albicans [23]): 3.13%
IC50 (Cytochrome P450 3A4): 6.62 µM
Activity (Cryptococcus neoformans [24]): 8.38%
Tmax [25]: 4.98 min
